The assay concerns the target Recombinant full length human PFKFB3 (Homo sapiens, UniProt Q16875). The assay is described as follows: PFKFB3 kinase activity assay (ADP production, ADP-Glo).

pIC50: −log10 of the molar value. A value given as a limit tells only on which side of the number the result lay.

Chain of Recombinant full length human PFKFB3 (Q16875 whole entry): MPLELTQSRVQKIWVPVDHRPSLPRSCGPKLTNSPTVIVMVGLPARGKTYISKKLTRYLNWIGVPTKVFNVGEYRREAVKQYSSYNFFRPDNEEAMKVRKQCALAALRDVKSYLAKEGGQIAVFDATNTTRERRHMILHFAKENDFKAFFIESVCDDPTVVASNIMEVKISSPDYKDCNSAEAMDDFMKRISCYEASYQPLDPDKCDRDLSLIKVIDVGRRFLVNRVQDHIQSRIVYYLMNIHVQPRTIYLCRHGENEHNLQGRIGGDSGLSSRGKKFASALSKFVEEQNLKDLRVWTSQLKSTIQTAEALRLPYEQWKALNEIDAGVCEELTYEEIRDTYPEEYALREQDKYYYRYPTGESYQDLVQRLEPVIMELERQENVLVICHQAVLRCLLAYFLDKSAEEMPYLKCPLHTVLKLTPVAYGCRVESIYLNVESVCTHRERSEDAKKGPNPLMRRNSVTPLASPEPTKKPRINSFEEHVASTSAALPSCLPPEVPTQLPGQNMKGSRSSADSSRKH

As to `NC(COC(=O)c1ccc(-c2ccccc2)cc1N1C(=O)c2ccc(-c3c[nH]nn3)cc2C1=O)C(=O)O` (stereo in doubt) [Compound 73, 3-[1,3-Dioxo-5-(1H-[1,2,3]triazol-4-yl)-1,3-dihydroisoindol-2-yl]biphenyl-4-carboxylic acid (2S)-2-amino-2-carboxy-ethyl ester], the pIC50 – broadly, −log10 of the IC50, conventionally taken in molar units – was 5.30 to 5.70. The value for `O=C(O)c1ccc(-c2ccc(F)c(F)c2)cc1N1Cc2ccc(-n3cnnn3)cc2C1=O` [Compound 122, 3′,4′-Difluoro-3-(1-oxo-6-tetrazol-1-yl-1,3-dihydroisoindol-2-yl)biphenyl-4-carboxylic Acid] was 5.70 to 6.30; that for `COC(=O)c1cc(-c2ccccc2)ccc1N1C(=O)c2ccc(-c3c[nH]nn3)cc2C1=O` [Example 33] was more than 4.70. The figure for `CC(C)[C@H](N)C(=O)OCCOC(=O)c1ccc(-c2ccccc2)cc1N1C(=O)c2ccc(-c3c[nH]nn3)cc2C1=O` [Compound 74, 3-[1,3-Dioxo-5-(1H-[1,2,3]triazol-4-yl)-1,3-dihydroisoindol-2-yl]biphenyl-4-carboxylic acid 2-{[(2S)-2-amino-3-methylbutanoyl]oxy}ethyl ester] is more than 4.70; for `COc1ccc(-c2c(C)sc(NC(=O)c3ccc(C(=O)O)cc3C(=O)NCCN(C)C)c2C#N)cc1` [Example 14, 4-{[3-cyano-4-(4-methoxyphenyl)-5-methylthiophen-2-yl]carbamoyl}-3-{[2-(dimethylamino)ethyl]carbamoyl}benzoic acid] it is more than 4.70.

As for `COc1ccc(-c2c(C)sc(NC(=O)c3cc(O)c(C(=O)O)cc3C(=O)O)c2C#N)cc1` [Example 33, 4-((3-cyano-4-(4-methoxyphenyl)-5-methylthiophen-2-yl)carbamoyl)-6-hydroxyisophthalic acid], the pIC50 was more than 6.30. Turning to `CC(C)(C)OC(=O)c1ccc(-c2ccc(F)c(F)c2)cc1N1Cc2ccc(-c3c[nH]nn3)cc2C1=O` [Compound 117, 3′,4′-Difluoro-3-[1-oxo-6-(1H-[1,2,3]triazol-4-yl)-1,3-dihydro-isoindol-2-yl]-biphenyl-4-carboxylic acid tert-butyl ester], the pIC50 is more than 4.70. The figure for `O=C(O)c1ccc(-c2ccc(F)c(F)c2)cc1N1Cc2ccc(-c3nn[nH]c3-c3ccccc3)cc2C1=O` [compound 163, 3′,4′-difluoro-3-(1-oxo-6-(5-phenyl-1H-1,2,3-triazol-4-yl)isoindolin-2-yl)biphenyl-4-carboxylic acid] is 5.70 to 6.30; for `COc1ccc(-c2c(C)sc(NC(=O)c3cc(C(=O)O)ccc3C(=O)O)c2C#N)cc1` [Example 29, 2-{[3-cyano-4-(4-methoxyphenyl)-5-methylthiophen-2-yl]carbamoyl}benzene-1,4-dicarboxylic acid] it is 4.70 to 5.30; for `COc1ccc(-c2nnn[nH]2)c(N2C(=O)c3ccc(-c4c[nH]nn4)cc3C2=O)c1` [compound 154, 2-(2-(1H-tetrazol-5-yl)-5-methoxyphenyl)-5-(1H-1,2,3-triazol-4-yl)isoindoline-1,3-dione] it is 4.70 to 5.30. Take `COC(=O)c1cc(-c2c[nH]nn2)ccc1C(=O)Nc1sc(C)c(-c2ccc(OC)cc2)c1C#N` [Example 9, methyl 2-{[3-cyano-4-(4-methoxyphenyl)-5-methylthiophen-2-yl]carbamoyl}-5-(2H-1,2,3-triazol-4-yl)benzoate]: the pIC50 was 4.70 to 5.30. As for `CCCCS(=O)(=O)NC(=O)c1ccc2c(c1)C(=O)N(c1sc(C)c(-c3ccc(OC)cc3)c1C#N)C2=O` [Example 15], the pIC50 was 4.70 to 5.30. The value for `O=C(OCCN1CCOCC1)c1ccc(-c2ccccc2)cc1N1C(=O)c2ccc(-c3c[nH]nn3)cc2C1=O` [Example 67] was 4.70 to 5.30; that for `Cc1ccc(S(=O)(=O)Nc2ccc3c(c2)C(=O)N(c2cc(-c4ccc(F)c(F)c4)ccc2C(=O)O)C3)cc1` [Compound 132, 3′,4′-Difluoro-3-[1-oxo-6-(toluene-4-sulfonylamino)-1,3-dihydro-isoindol-2-yl]-biphenyl-4-carboxylic acid] was 4.70 to 5.30.
